Biological target: Vasopressin V1a receptor (Homo sapiens, UniProt P37288)
Experiment: competition binding assay: The human V1a receptor was cloned by RT-PCR from total human liver RNA. The coding sequence was subcloned in an expression vector after sequencing to confirm the identity of the amplified sequence. […] Cell membranes were prepared from HEK293 cells transiently transfected with the expression vector and grown in 20 liter fermenters with the following protocol.50 g of cells are re-suspended in 30 ml freshly prepared ice cold Lysis buffer (50 mM HEPES, 1 mM EDTA, 10 mM MgCl2 adjusted to pH=7.4+complete cocktail of protease inhibitor (Roche Diagnostics)). Homogenized with Polytron for 1 min and sonicated on ice for 2×2 minutes at 80% intensity (Vibracell sonicator). The preparation is centrifuged 20 min at 500 g at 4° C., the pellet is discarded and the supernatant centrifuged 1 hour at 43,000 g at 4° C. (19,000 rpm). The pellet is re-suspended in 12.5 ml Lysis buffer+12.5 ml Sucrose 20% and homogenized using a Polytron for 1-2 min. The protein concentration is determined by the Bradford method and aliquots are stored at −80° C. until use. For binding studies 60 mg Yttrium silicate SPA beads (Amersham) are mixed with an aliquot of membrane in binding buffer (50 mM Tris, 120 mM NaCl, 5 mM KCl, 2 mM CaCl2, 10 mM MgCl2) for 15 minutes with mixing. […]

Vasopressin V1a receptor, sequence (P37288 whole entry): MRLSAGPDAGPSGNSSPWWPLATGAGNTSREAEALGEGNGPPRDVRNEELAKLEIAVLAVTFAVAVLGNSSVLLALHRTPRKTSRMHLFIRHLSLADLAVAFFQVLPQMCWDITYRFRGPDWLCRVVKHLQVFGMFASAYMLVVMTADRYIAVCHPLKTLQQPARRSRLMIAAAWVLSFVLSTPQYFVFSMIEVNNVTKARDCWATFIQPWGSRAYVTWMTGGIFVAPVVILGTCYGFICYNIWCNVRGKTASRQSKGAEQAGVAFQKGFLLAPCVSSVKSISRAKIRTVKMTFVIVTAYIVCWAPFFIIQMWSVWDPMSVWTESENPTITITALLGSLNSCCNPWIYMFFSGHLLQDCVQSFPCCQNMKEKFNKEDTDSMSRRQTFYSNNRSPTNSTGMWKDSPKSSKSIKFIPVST

SMILES | Ki
C/C(=C1/SC(N2CCC3(CC2)OCc2ccccc23)=NC1=O)c1nccs1 | 1 nM
C/C(=C1\SC(N2CCC3(CC2)OCc2ccccc23)=NC1=O)c1ccc(Cl)nc1 | 3.16 nM

From ChEMBL document CHEMBL5725746, “Spiro-thiazolones” (2018)
